According to ChEMBL document CHEMBL4359862, “Cinnamamide: An insight into the pharmacological advances and structure-activity relationships” (Eur J Med Chem, 2019):
In brackets after ≈: the same amount, converted by molar mass.

Assays:
U-937 = assay: Cell cycle arrest in human U937 cells assessed as increase in accumulation in G2 phase incubated for 6 hrs by propidium iodide staining based flow cytometry; assay type: functional; settings: U-937, 6 h
[1] = target: T1, Tyrosinase (Agaricus bisporus) (UniProt O42713); assay: Inhibition of mushroom tyrosinase at 25 uM using L-tyrosine as substrate incubated for 30 mins relative to control
T1 sequence (whole entry): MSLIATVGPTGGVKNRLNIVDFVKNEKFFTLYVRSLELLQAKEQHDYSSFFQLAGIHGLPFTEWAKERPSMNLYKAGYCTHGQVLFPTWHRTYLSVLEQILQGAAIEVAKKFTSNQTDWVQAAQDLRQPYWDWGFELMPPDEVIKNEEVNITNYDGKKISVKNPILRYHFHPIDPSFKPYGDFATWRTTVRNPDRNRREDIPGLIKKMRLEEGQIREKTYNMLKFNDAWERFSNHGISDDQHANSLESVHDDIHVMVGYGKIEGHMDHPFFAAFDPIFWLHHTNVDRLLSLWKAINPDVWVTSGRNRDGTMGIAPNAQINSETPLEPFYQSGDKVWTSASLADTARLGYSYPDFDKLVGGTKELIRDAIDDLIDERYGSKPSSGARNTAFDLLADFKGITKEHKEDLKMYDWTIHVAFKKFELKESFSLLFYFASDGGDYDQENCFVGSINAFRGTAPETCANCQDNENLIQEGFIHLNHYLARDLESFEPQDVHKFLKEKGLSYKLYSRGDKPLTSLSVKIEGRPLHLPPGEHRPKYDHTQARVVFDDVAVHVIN

DU-145 [2] = assay: Antiproliferative activity against human DU145 cells assessed as reduction in cell viability incubated for 48 hrs by MTT assay; assay type: functional, cell-based; settings: DU-145, 48 h
MCF7 = assay: Antiproliferative activity against human MCF7 cells assessed as reduction in cell viability incubated for 48 hrs by MTT assay; assay type: functional, cell-based; settings: MCF7, 48 h
MGC-803 = assay: Antiproliferative activity against human MGC803 cells; assay type: functional, cell-based
[3] = target: Telomerase reverse transcriptase (Homo sapiens, UniProt O14746); assay: Inhibition of telomerase (unknown origin)
Telomerase reverse transcriptase, sequence (O14746 whole entry): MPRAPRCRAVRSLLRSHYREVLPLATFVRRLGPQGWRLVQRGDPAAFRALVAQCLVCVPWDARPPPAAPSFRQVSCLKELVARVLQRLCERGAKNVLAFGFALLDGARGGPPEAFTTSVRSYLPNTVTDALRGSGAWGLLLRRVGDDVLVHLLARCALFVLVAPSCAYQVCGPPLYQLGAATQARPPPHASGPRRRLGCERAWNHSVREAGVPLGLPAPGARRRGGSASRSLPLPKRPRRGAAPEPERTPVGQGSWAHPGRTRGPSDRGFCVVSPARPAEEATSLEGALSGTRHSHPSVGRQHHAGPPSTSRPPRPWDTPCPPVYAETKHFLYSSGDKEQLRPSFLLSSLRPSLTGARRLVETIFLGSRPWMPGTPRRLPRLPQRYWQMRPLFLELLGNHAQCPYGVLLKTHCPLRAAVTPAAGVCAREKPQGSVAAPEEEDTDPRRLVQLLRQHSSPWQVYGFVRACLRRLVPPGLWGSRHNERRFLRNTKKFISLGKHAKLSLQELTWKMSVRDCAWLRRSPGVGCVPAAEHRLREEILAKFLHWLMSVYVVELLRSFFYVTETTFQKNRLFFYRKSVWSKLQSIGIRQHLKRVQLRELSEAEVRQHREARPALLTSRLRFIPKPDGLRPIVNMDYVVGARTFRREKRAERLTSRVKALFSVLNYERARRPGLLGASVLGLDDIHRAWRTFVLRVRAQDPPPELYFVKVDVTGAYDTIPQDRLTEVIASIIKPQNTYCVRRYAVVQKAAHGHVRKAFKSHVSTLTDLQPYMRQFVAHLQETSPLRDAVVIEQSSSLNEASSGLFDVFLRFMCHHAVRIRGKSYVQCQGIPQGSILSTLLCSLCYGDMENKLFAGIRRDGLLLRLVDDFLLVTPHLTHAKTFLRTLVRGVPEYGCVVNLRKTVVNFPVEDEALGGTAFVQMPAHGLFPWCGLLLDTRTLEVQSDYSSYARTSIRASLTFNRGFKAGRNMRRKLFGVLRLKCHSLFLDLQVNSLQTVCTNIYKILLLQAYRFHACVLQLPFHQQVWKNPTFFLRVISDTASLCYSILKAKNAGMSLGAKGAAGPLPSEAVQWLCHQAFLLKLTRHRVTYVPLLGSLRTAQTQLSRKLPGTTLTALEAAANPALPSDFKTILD

[4] = target: T2, Amine oxidase [flavin-containing] B (Homo sapiens, UniProt P27338); assay: Inhibition of recombinant human MAOB using kynuramine as substrate preincubated with substrate for 10 mins followed by enzyme addition and measured after 20 mins by fluorescence spectrophotometry
T2 sequence (P27338 whole entry): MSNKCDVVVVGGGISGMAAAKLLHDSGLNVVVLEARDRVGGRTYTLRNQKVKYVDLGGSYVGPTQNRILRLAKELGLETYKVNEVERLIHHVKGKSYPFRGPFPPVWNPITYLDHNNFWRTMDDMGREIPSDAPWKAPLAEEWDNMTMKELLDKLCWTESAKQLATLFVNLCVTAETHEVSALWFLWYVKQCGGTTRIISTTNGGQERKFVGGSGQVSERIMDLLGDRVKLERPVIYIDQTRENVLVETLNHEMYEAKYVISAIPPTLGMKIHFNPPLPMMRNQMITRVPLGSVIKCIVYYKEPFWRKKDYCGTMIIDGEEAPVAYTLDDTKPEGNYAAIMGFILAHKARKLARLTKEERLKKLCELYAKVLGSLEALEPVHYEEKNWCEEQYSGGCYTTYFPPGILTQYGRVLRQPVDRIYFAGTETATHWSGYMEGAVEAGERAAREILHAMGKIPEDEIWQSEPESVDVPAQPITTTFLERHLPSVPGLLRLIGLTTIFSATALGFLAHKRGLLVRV

Staphylococcus aureus = assay: Antibacterial activity against Staphylococcus aureus ATCC 6538 assessed as reduction in bacterial cell viability incubated for 24 hrs by broth microdilution assay; assay type: functional, organism-based; settings: ATCC 6538, 24 h
[5] = Inhibition of recombinant LFA1/ICAM1 (unknown origin) interaction incubated for 1 hr by time resolved fluorimetry; set-up: species or system Homo sapiens
Candida albicans = assay: Antifungal activity against Candida albicans assessed as reduction in fungal cell growth incubated for 48 hrs by serial dilution assay; assay type: functional
Escherichia coli [6] = assay: Antibacterial activity against Escherichia coli assessed as reduction in bacterial cell viability incubated for 24 hrs by serial dilution assay; assay type: functional
Escherichia coli [7] = assay: Antibacterial activity against Escherichia coli assessed as reduction in bacterial cell viability by well plate method; assay type: functional
Bacillus subtilis = assay: Antibacterial activity against Bacillus subtilis assessed as reduction in bacterial cell viability by well plate method; assay type: functional
DU-145 [8] = assay: Antiproliferative activity against human DU145 cells; assay type: functional, cell-based
HeLa S3 = assay: Antiproliferative activity against human HeLaS3 cells assessed as reduction in cell viability incubated for 72 hrs by cell counter method; assay type: functional, cell-based; settings: HeLa S3, 72 h
[9] = target: Epidermal growth factor receptor (Homo sapiens, UniProt P00533); assay: Inhibition of EGFR (unknown origin)
Epidermal growth factor receptor, sequence (P00533 whole entry): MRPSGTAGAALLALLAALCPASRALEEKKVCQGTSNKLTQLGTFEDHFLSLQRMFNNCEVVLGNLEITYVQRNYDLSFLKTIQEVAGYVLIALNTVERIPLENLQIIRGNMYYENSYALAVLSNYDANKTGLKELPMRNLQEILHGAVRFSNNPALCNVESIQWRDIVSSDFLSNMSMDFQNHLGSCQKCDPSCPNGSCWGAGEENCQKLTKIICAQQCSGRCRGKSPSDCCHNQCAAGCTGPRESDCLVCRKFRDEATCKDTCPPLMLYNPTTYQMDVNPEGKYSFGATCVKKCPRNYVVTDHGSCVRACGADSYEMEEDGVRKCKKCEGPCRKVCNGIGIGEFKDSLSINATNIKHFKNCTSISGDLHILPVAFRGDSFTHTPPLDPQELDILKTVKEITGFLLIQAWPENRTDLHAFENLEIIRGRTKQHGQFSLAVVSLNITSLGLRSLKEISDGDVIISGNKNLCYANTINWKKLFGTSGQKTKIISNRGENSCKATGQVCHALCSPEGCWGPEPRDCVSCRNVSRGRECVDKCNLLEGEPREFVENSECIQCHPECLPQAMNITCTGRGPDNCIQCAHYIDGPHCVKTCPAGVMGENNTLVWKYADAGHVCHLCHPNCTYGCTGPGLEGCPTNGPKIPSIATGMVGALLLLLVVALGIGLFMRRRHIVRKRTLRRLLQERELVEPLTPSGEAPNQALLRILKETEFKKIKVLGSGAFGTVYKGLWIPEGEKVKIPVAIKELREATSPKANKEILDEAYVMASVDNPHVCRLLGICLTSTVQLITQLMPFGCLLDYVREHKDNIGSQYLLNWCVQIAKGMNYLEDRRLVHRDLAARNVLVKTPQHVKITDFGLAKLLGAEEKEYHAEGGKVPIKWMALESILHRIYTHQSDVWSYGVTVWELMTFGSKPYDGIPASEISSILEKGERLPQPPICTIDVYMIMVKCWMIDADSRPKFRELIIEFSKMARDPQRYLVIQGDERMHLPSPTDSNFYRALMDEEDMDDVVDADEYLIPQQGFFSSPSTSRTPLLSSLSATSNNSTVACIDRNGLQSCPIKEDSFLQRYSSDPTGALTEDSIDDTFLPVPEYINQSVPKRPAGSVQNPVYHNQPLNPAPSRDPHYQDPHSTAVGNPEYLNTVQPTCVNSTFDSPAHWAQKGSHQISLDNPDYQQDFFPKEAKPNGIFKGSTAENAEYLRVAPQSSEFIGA

[10] = target: Vascular endothelial growth factor receptor 2 (Homo sapiens, UniProt P35968); assay: Inhibition of VEGFR (unknown origin)
Vascular endothelial growth factor receptor 2, sequence (P35968 whole entry): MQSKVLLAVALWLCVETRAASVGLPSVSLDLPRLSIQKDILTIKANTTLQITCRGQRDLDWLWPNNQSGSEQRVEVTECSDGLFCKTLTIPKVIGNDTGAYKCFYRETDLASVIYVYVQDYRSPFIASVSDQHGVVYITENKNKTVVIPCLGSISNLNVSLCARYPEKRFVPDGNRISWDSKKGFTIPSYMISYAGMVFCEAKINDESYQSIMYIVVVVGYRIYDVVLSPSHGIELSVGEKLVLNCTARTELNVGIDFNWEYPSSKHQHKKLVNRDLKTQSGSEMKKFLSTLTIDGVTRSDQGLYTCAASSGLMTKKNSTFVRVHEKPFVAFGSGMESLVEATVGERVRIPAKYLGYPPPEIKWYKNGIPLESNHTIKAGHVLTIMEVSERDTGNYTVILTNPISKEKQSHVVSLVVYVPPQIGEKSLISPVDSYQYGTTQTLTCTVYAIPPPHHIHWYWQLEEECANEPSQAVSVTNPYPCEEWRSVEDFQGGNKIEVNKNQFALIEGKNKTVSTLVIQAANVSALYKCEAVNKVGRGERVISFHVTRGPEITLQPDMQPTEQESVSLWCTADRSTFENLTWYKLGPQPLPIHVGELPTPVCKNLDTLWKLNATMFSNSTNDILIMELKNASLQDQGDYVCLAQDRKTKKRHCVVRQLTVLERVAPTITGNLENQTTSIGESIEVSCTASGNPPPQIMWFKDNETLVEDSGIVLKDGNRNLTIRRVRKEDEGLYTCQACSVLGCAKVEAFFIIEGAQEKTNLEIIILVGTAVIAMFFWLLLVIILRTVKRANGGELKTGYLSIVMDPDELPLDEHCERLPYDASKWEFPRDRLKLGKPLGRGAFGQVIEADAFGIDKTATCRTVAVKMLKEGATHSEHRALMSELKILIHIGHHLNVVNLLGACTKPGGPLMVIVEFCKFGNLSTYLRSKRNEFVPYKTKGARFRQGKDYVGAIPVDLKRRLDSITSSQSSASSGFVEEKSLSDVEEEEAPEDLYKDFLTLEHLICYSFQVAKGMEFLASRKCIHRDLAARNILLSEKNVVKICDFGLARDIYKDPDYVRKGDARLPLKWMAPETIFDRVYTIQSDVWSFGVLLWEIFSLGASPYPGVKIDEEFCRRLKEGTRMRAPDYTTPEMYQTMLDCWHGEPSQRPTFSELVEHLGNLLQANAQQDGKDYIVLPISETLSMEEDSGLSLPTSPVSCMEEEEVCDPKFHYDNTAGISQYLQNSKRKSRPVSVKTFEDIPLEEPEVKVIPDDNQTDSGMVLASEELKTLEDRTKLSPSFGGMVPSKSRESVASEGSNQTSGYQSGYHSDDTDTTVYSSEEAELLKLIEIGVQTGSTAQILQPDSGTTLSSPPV

P-selectin = target: T3, P-selectin (Homo sapiens, UniProt P16109); assay: Inhibition of P-selectin (unknown origin) incubated for 30 mins by ELISA
T3 sequence (P16109 whole entry): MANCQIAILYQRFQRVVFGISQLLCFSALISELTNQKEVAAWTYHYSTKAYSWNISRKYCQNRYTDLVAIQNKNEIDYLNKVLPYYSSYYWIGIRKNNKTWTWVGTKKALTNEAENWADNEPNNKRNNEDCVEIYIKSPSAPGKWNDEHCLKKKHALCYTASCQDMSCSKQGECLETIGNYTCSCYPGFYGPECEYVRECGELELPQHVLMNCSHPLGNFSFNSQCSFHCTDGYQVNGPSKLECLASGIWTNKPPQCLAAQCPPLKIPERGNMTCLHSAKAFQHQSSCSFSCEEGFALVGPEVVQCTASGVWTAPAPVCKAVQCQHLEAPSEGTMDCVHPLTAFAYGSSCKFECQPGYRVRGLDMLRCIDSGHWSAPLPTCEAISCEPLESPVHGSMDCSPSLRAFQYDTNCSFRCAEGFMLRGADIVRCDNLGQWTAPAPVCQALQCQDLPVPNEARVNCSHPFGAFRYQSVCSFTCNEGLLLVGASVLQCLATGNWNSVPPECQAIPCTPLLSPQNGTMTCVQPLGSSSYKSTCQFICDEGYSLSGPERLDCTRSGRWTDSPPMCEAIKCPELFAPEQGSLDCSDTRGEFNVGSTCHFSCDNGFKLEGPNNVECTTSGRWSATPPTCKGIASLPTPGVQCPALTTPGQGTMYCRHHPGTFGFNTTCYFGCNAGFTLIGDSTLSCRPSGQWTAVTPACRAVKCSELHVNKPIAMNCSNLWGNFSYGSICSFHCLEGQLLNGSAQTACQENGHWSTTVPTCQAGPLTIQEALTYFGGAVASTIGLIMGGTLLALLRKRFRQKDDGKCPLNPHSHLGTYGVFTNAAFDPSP

[11] = Inhibition of LFA1/ICAM1 (unknown origin) interaction; set-up: species or system Homo sapiens
Beta-secretase 1 = Beta-secretase 1 (Homo sapiens, UniProt P56817); assay: Inhibition of recombinant human BACE 1 using Rh-EVNL-DAEFK-Quencher as substrate incubated for 60 mins by fluorescence based assay
Beta-secretase 1, sequence (P56817 whole entry): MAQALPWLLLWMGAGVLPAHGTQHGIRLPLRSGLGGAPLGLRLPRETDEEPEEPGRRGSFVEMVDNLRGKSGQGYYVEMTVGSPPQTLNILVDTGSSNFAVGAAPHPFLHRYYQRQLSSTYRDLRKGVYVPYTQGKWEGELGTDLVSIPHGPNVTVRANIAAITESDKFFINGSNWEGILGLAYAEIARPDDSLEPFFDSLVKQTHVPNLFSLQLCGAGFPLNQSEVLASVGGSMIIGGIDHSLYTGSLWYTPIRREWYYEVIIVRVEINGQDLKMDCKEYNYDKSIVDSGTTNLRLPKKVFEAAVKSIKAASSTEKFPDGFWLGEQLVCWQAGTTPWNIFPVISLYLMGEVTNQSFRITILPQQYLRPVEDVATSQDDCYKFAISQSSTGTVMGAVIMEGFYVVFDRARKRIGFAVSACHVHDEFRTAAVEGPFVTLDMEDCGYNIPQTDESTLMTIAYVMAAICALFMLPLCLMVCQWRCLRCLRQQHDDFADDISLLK

[12] = Antioxidant activity assessed as DPPH free radical scavenging activity by spectrophotometry; assay type: functional
[13] = Inhibition of recombinant LFA1/ICAM1 (unknown origin) interaction in JY-8 cells expressing LFA1 incubated for 45 mins by fluorescence based assay; assay type: cell-based, Homo sapiens
B2 bradykinin receptor = target: T4, B2 bradykinin receptor (Cavia porcellus, UniProt O70526); assay: Displacement of [3H]BK from Bradykinin B2 Receptor in guinea pig ileum by liquid scintillation counter; assay type: tissue-based
T4 sequence (O70526 whole entry): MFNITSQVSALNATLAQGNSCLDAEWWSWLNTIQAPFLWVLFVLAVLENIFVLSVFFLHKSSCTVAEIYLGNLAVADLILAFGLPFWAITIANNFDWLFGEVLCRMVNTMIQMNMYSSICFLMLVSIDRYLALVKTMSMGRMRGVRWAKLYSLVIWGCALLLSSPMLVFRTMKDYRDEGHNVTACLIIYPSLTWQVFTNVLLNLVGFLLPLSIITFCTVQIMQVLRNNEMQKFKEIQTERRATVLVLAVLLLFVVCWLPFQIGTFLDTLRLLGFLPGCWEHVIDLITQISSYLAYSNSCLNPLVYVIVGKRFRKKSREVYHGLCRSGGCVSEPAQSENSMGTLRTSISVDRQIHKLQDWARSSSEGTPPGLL

HT-29 = assay: Antiproliferative activity against human HT-29 cells assessed as reduction in cell viability by MTT assay; assay type: functional, cell-based
P388 = assay: Antiproliferative activity against mouse P388 cells assessed as reduction in cell viability by MTT assay; assay type: functional, cell-based

COc1ccc(/C=C/C(=O)NC23CC4CC(CC(C4)C2)C3)c2ccccc12
IC50 (U-937): 7100 nM

O=C(/C=C/c1ccc(O)cc1O)N1CCOCC1
inhibition [1]: 95.7%

C=CCOc1cc(/C=C/C(=O)Nc2cc(OC)c(OC)c(OC)c2)ccc1N/C=C\C(=O)c1cc(N)c(OC)c(OC)c1
IC50 (DU-145 [2]): 7480 nM

CC(C)(C)NC(=O)/C=C/c1ccccc1 [N-TERT-BUTYLCINNAMAMIDE]
IC50 (MCF7): 13400 nM

CCCc1n[nH]c(C(N)=O)c1NC(=O)/C=C/c1ccco1
IC50 (MGC-803): 3010 nM
IC50 [3]: 1020 nM

O=C(/C=C/c1ccc(O)cc1)NCCc1c[nH]c2ccc(O)cc12 [N-P-COUMAROYL SEROTONIN]
EC50 [4]: 1200 nM

COc1cc(/C=C/C(=O)NNC(=O)c2ccccc2)cc(OC)c1OC
IC50 (Staphylococcus aureus): 85200 nM

O=C(O)C1CCCN(C(=O)/C=C/c2ccc(Sc3ccc4c(c3)OCCO4)c(C(F)(F)F)c2)C1 (stereo unspecified)
IC50 [5]: 25 nM

C=CCOc1cc(/C=C/C(=O)Nc2cc(OC)c(OC)c(OC)c2)ccc1N/C=C\C(=O)c1ccc(OC)c([N+](=O)[O-])c1
IC50 (DU-145 [2]): 8910 nM

O=C(/C=C/c1ccccc1)Nc1ccc([N+](=O)[O-])cc1
log(1/MIC) (Candida albicans): 2.43
log(1/MIC) (Escherichia coli [6]): 2.43

CCCc1n[nH]c(C(N)=O)c1NC(=O)/C=C/c1cc(OC)c(OC)c(OC)c1
IC50 (MGC-803): 4240 nM

CN(C)C(=O)/C=C/c1ccccc1
log(1/MIC) (Candida albicans): 2.43
log(1/MIC) (Escherichia coli [6]): 2.43

COc1ccc(/C=C/C(=O)N2CCOCC2)c(OC)c1OC
MIC (Escherichia coli [7]): 6.12 µM (≈ 1.88 µg/mL)
MIC (Bacillus subtilis): 6.12 µM (≈ 1.88 µg/mL)

O=C(/C=C/c1ccccc1)N1CCCCC1
log(1/MIC) (Candida albicans): 2.43
log(1/MIC) (Escherichia coli [6]): 2.43

O=C(/C=C/c1ccc(O)cc1)N1Cc2ccccc2[C@@H](OCc2ccccc2)[C@@H]1CO
IC50 (DU-145 [8]): 2080 nM

COc1ccc(/C=C/C(=O)N2C[C@H]3C[C@@]34C2=CC(=O)c2[nH]c(C)c(Cl)c24)cc1
IC50 (HeLa S3): 0.029 nM

COc1ccc(/C=C/C(=O)Nc2cc3c(Nc4ccc(F)c(Cl)c4)ncnc3cc2O[C@@H]2CCOC2)cc1
IC50 [9]: 9 nM
IC50 [10]: 3.6 nM

CCCCCCCCCCCCCCCCNC(=O)/C=C/c1ccc(-c2[nH]c(-c3ccc(C4=NOC(C(=O)O)C4)cc3)nc2-c2ccc(/C=C/C(=O)O)cc2)cc1 (stereo unspecified)
IC50 (P-selectin): 300 nM

O=C(/C=C/c1ccc(O)cc1O)NC1CCCC1
inhibition [1]: 94.1%

CC(=O)N1CCN(C(=O)/C=C/c2ccc(Sc3ccc4c(c3)OCCO4)c(Cl)c2)CC1
IC50 [11]: 40 nM

O=C(/C=C/c1ccccc1)NCCc1cc2cc(O)ccc2[nH]1
IC50 (Beta-secretase 1): 86700 nM

COc1cc(/C=C/C(=O)N2CCOCC2)cc(OC)c1OC
MIC (Escherichia coli [7]): 25 µM (≈ 7.68 µg/mL)
MIC (Bacillus subtilis): 25 µM (≈ 7.68 µg/mL)

CC(=O)N1CCN(C(=O)/C=C/c2ccc(Sc3ccccc3C(C)C)c([N+](=O)[O-])c2)CC1 [A-286982]
IC50 [5]: 35 nM

CCCCCCCCCCCCNC(=O)/C=C/c1ccccc1 [N-DODECYLCINNAMAMIDE]
IC50 (MCF7): 11100 nM

O=C(/C=C/c1ccc(O)c(O)c1)NCCc1c[nH]c2ccc(O)cc12 [N-CAFFEOYLSEROTONIN]
EC50 [12]: 8100 nM

CC(=O)N1CCN(C(=O)/C=C/c2ccc(Sc3ccc(Cl)cc3Cl)c([N+](=O)[O-])c2)CC1
IC50 [5]: 90 nM

COc1ccccc1Sc1ccc(/C=C/C(=O)N2CCC(C(=O)O)CC2)c(C(F)(F)F)c1C(F)(F)F
IC50 [13]: 0.1 nM

CN1CCN(C(=O)/C=C/c2ccc(O)cc2O)CC1
inhibition [1]: 94.4%

COc1cccc(/C=C/C(=O)Nc2cc(OC)c(OC)c(OC)c2)c1
IC50 (U-937): 8000 nM

CNC(=O)c1ccc(/C=C/C(=O)NCC(=O)N(C)c2ccc(Cl)c(COc3cccc4ccc(C)nc34)c2Cl)cn1
IC50 (B2 bradykinin receptor): 0.46 nM

COc1ccc(/C=C/C(=O)N2C[C@H]3C[C@@]34C2=CC(=O)c2[nH]c(C)c(Br)c24)cc1
IC50 (HeLa S3): 0.065 nM

COc1cc(/C=C/C(=O)Nc2cc3c(Nc4ccc(F)c(Cl)c4)ncnc3cc2O[C@@H]2CCOC2)cc(OC)c1OC
IC50 [9]: 9 nM
IC50 [10]: 3.6 nM

CCc1ccccc1Sc1ccc(/C=C/C(=O)N2CCN(C(C)=O)CC2)cc1[N+](=O)[O-]
IC50 [13]: 65 nM

O=C(O)C1CCN(C(=O)/C=C/c2ccc(Sc3ccc4c(c3)OCCO4)c(C(F)(F)F)c2C(F)(F)F)CC1
IC50 [13]: 0.5 nM

O=C(/C=C/c1ccc(O)cc1O)Nc1ccccc1
inhibition [1]: 93.7%

CCCc1n[nH]c(C(N)=O)c1NC(=O)/C=C/c1ccccc1
IC50 (MGC-803): 3440 nM

COc1cc(/C=C/C(=O)NCCc2cc(OC)c(O)c(OC)c2)ccc1O
IC50 (HT-29): 4000 nM
IC50 (P388): 4000 nM
